Source: PMC4332989 (Cellular signalling, 2014)
Where two headings read alike, the source gives them in different places.

Tests used:
CB1R [1] = experiment: On-cell-Western CB1R cell surface density in N18TG2 clones; type: cell-based, mouse
CB1R [2] = biological target: T1, CB1R (Mus musculus, UniProt P47746); type: cell-based; settings: for agonist-stimulated enhancement in phosphoERK1/2 levels: over basal (Fig. 4); for agonist-stimulated maximal ERK1/2 phosphorylation: 5 min (Fig. 4B); for stimulated ERK1/2 phosphorylation: 5 min (Fig. 5B)
CB1R [3] = biological target: T1, CB1R; experiment: cell-based; settings: for EC50: EC50, inhibition of forskolin-stimulated cAMP accumulation, 1 μM forskolin
CB1R coupling to Gαi3 = CB1R coupling to Gαi3 (Mus musculus, UniProt P47746); settings: 100 nM
CB1R coupling to Gαo = CB1R coupling to Gαo (Mus musculus, UniProt P47746); settings: 100 nM
CB1R coupling to Gαi1 = CB1R coupling to Gαi1 (Mus musculus, UniProt P47746); settings: 100 nM
CB1R coupling to Gαi2 = CB1R coupling to Gαi2 (Mus musculus, UniProt P47746); settings: 100 nM
[4] = WT, Control or CRIP1a KD membranes

Chain of CB1R coupling to Gαo (P47746 whole entry): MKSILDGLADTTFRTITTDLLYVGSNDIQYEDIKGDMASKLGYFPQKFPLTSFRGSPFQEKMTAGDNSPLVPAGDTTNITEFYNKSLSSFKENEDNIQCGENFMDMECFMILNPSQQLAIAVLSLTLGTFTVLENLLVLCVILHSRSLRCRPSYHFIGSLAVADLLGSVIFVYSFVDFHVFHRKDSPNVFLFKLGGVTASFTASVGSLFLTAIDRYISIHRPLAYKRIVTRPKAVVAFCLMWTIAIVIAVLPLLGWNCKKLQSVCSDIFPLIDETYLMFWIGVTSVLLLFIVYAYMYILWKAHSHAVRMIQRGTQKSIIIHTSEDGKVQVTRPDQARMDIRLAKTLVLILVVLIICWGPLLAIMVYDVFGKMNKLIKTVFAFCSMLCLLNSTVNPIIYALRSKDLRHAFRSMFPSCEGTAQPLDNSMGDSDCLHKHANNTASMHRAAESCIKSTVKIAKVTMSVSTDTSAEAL
Chain of CB1R coupling to Gαi3 (P47746 whole entry): as above
T1 sequence (P47746 whole entry): as above
Chain of CB1R coupling to Gαi2 (P47746 whole entry): as above
Chain of CB1R coupling to Gαi1 (P47746 whole entry): as above

Structure (SMILES): C[C@@H]1C[C@@H]([C@H](O)CC2CC(=O)NC(=O)C2)C(=O)[C@@H](C)C1 [cycloheximide]
- effect on CB1R plasma membrane density (CB1R [1]; CRIP1a XS or KD cells, 50 μM, 2 h pre-treatment (data not shown)): failed to alter

Structure (SMILES): O=C(NN=Cc1ccc(O)c(O)c1)c1cc2ccccc2cc1O [Dynasore, 3-Hydroxynaphthalene-2-carboxylic acid (3,4-dihydroxybenzylidene)hydrazide]
- effect on CP55940-stimulated phosphorylation of ERK1/2 (CB1R [2]; WT, CRIP1a-XS and KD clones, Dynasore 80 μM, 30 min preincubation, CP55940 10 nM): completely blocked

Structure (SMILES): CCCCC/C=C\C/C=C\C/C=C\C/C=C\CCCC(=O)N[C@H](C)CO [mAEA, (R)-N-(2-Hydroxy-1-methylethyl)-5Z,8Z,11Z,14Z-eicosatetraenamide]
- ERK phosphorylation as share of the response observed with a CB1R full agonist (CB1R [2]; N18TG2 WT cells, 10 nM, 5 min): ~ 30%
- agonist-stimulated enhancement in phosphoERK1/2 levels (CB1R [2]; N18TG2 WT cells, 10 nM, 5 min): 12±2%
- effect on cAMP accumulation (CB1R [3]; all clones, not altered by differences in the expression of CRIP1a (Fig. 7B)): concentration-dependent attenuation

Structure (SMILES): CCCCCCC(C)(C)c1ccc([C@@H]2C[C@H](O)CC[C@H]2CCCO)c(O)c1 [CP55940, (−)-cis-3-[2-Hydroxy-4-(1,1-dimethyl-heptyl)phenyl]-trans-4-(3-hydroxypropyl)cyclohexanol]
- agonist-stimulated maximal ERK1/2 phosphorylation (CB1R [2]; CRIP1a KD2C cells, 10 nM): 63±8%
- agonist-stimulated maximal ERK1/2 phosphorylation (CB1R [2]; CRIP1a KD2F cells, 10 nM): 59±4%
- stimulated ERK1/2 phosphorylation (CB1R [2]; KD2C cells, 10 nM): 68±4%
- stimulated ERK1/2 phosphorylation (CB1R [2]; KD2C cells, 100 nM): 58±5%
- stimulated ERK1/2 phosphorylation (CB1R [2]; KD2F cells, 10 nM): 73±5%
- stimulated ERK1/2 phosphorylation (CB1R [2]; KD2F cells, 100 nM): 62±6%
- agonist-stimulated enhancement in phosphoERK1/2 levels (CB1R [2]; N18TG2 WT cells, 10 nM, 5 min): 45±6%
- time of rapid increase in phosphoERK1/2 levels (CB1R [2]; WT, CRIP1a-XS and KD cells, 10 nM): ≤ 5 min
- EC50 (CB1R [3]; CRIP1a KD cells, 4 min): 0.2 nM
- EC50 (CB1R [3]; CRIP1a over-expression (XS) cells, 4 min): 1.6 nM
- EC50 (CB1R [3]; N18TG2 WT cells, 4 min): 3.4 nM
- stimulated [35S]GTPγS binding to Gαi3 (CB1R coupling to Gαi3; CRIP1a KD membranes): 103±22 % over basal
- stimulated [35S]GTPγS binding to Gαi3 (CB1R coupling to Gαi3; CRIP1a XS membranes): 10±12 % over basal
- stimulated [35S]GTPγS binding to Gαi3 (CB1R coupling to Gαi3; Control clone membranes): 62±21 % over basal
- stimulated [35S]GTPγS binding to Gαi3 (CB1R coupling to Gαi3; WT membranes): 79±18 % over basal
- enhancement in [35S]GTPγS binding to Gαo (CB1R coupling to Gαo; CRIP1a KD membranes): 79±21 % over basal
- enhancement in [35S]GTPγS binding to Gαo (CB1R coupling to Gαo; CRIP1a XS membranes): 4±3 % over basal
- enhancement in [35S]GTPγS binding to Gαo (CB1R coupling to Gαo; WT membranes): 49±9 % over basal
- stimulation of [35S]GTPγS binding to Gαi1 (CB1R coupling to Gαi1; CRIP1a XS membranes): 128±54 % above basal
- binding of Gαi1 to CB1R following treatment (CB1R coupling to Gαi1; [4]): no differences
- stimulation of [35S]GTPγS binding to Gαi2 (CB1R coupling to Gαi2; CRIP1a XS membranes): 753±316 % above basal
- binding of Gαi2 to CB1R following treatment (CB1R coupling to Gαi2; [4]): no differences

Structure (SMILES): Cc1c(C(=O)c2cccc3ccccc23)c2cccc3c2n1C(CN1CCOCC1)CO3 (stereo not drawn) [WIN55212-2, [2,3-dihydro-5-methyl-3-[(4-morpholinyl)methyl]pyrrolo[1,2,3-de]-1,4-benzoxazin-6-yl](1-naphthyl)methanone]
- agonist-stimulated enhancement in phosphoERK1/2 levels (CB1R [2]; N18TG2 WT cells, 10 nM, 5 min): 36±5%

Structure (SMILES): CCCCCCCCCCC[C@@H](C[C@@H]1OC(=O)[C@H]1CCCCCC)OC(=O)[C@H](CC(C)C)NC=O [THL, tetrahydrolipstatin]
- effect on total or cell surface levels of CB1R (CB1R [1]; THL pretreatment 1 μM, 2 h (data not shown)): did not change

Structure (SMILES): C=C[C@@]1(C)CC(=O)[C@]2(O)[C@@]3(C)[C@@H](O)CCC(C)(C)[C@@H]3[C@H](O)[C@H](OC(C)=O)[C@@]2(C)O1 [forskolin]
- stimulation of cAMP accumulation over vehicle (CB1R [3]; 1 μM, 4 min, WT, Control, CRIP1a XS, CRIP1a KD): to the same extent in all cell lines tested
